# pIC50: −log10 of the molar value. Positions of bridges follow the written chain, without caps; N, C: chain ends. Non-standard residues stand in square brackets, D forms with d. Residues, ends and D or L forms follow the SMILES beside them. ξ: configuration not given here. *: point of attachment. Phe(4-COOH) = N[C@@H](Cc1ccc(C(=O)O)cc1)C(=O)O; Bip = N[C@@H](Cc1ccc(-c2ccccc2)cc1)C(=O)O; Phe(3-Me) = Cc1cccc(C[C@H](N)C(=O)O)c1; Val(3-OH) = CC(C)(O)[C@H](N)C(=O)O; NMeF = CN[C@@H](Cc1ccccc1)C(=O)O; 4Pal = N[C@@H](Cc1ccncc1)C(=O)O; dHyp = O=C(O)[C@H]1C[C@H](O)CN1; Cha = N[C@@H](CC1CCCCC1)C(=O)O; Cit = NC(=O)NCCC[C@H](N)C(=O)O; Thr(3ξ) = CC(O)[C@H](N)C(=O)O; Carboxymethyl = O=C(O)C*; NMeA = CN[C@@H](C)C(=O)O; Orn = NCCC[C@H](N)C(=O)O; Dab = NCC[C@H](N)C(=O)O; Dap = NC[C@H](N)C(=O)O; ξV = CC(C)C(N)C(=O)O; Sar = CNCC(=O)O
# Target: T1, human PD-1 (Jurkat-PD-1 cells) / PE-labeled human PD-L1-Ig (Homo sapiens, UniProt Q15116)
# T1 construct: expressed in transfected cells; host or cells: Jurkat cell line over-expressing human PD-1
# T1 sequence (Q15116 25-288): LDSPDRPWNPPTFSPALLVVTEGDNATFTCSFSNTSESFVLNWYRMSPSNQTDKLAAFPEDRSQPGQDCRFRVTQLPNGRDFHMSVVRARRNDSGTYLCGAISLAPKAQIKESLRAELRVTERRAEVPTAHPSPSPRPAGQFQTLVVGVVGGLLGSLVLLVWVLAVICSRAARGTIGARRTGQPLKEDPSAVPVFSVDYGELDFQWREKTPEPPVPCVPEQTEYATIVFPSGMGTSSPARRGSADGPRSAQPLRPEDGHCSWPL
# Assay: Jurkat-PD-1 Cell Binding High-Content Screening Assay (CBA); Jurkat hPD1-PDL1 assay
# Conditions: Jurkat cell line over-expressing human PD-1; PE-labeled PD-L1-Ig 20 nM final; compound incubated 2 hours at 37° C.; read-out: Jurkat HPD1-PDL1 IC50
# Outline: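 Jurkat cells over-expressing human PD-1, seeded in DMEM with 10% fetal calf serum, were preincubated with compound for 2 hours at 37° C. PE-labeled human PD-L1-Ig was then added at 20 nM final, and cell-bound fluorescence was read by high-content imaging.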
row,pIC50,SMILES
1,6.80,CC(C)C[C@@H]1NC(=O)[C@H](CCCNC(=N)N)NC(=O)[C@H](Cc2ccccc2)N(C)C(=O)[C@H](C)N(C)C(=O)[C@H](CCCNC(=N)N)NC(=O)[C@H](Cc2ccc(-c3ccccc3)cc2)NC(=O)[C@H](C(C)C)NC(=O)[C@H](Cc2c[nH]c3ccccc23)NC(=O)[C@H](CC(=O)O)NC(=O)[C@H](Cc2ccc(O)cc2)NC(=O)[C@H](Cc2ccccc2)NC(=O)CSC[C@@H](C(=O)N[C@H](C(N)=O)C(C)O)NC(=O)[C@H](CO)NC(=O)[C@H](C(C)C)NC1=O (stereo partly drawn) [Example 1063] ({CH2CO}-FYDWV[Bip]R[NMeA][NMeF]RLVSC[Thr(3ξ)]-NH2; thioether N-14)
2,6.12,CC(C)C[C@@H]1NC(=O)[C@H](Cc2c[nH]c3ccccc23)NC(=O)[C@H](CC(=O)O)NC(=O)[C@H](Cc2ccc(O)cc2)NC(=O)[C@H](Cc2ccccc2)NC(=O)CSC[C@@H](C(=O)N[C@@H](C)C(N)=O)NC(=O)[C@H](CO)NC(=O)[C@H](C(C)C)NC(=O)[C@H](CC(C)C)NC(=O)[C@H](CC(N)=O)NC(=O)CN(C)C(=O)[C@H]2C[C@H](O)CN2C(=O)C(C(C)C)NC(=O)[C@H](Cc2ccc(-c3ccccc3)cc2)NC1=O (stereo partly drawn) [Example 1003] ({CH2CO}-FYDWL[Bip][ξV][dHyp][Sar]NLVSCA-NH2; thioether N-14)
3,6.96,CC(C)C[C@@H]1NC(=O)[C@H](CCCNC(=N)N)NC(=O)[C@H](Cc2ccccc2)N(C)C(=O)[C@H](C)N(C)C(=O)[C@H](CCCNC(N)=O)NC(=O)[C@H](Cc2ccc(-c3ccccc3)cc2)NC(=O)[C@H](C(C)C)NC(=O)[C@H](Cc2c[nH]c3ccccc23)NC(=O)[C@H](CC(=O)O)NC(=O)[C@H](Cc2ccc(O)cc2)NC(=O)[C@H](Cc2ccccc2)NC(=O)CSC[C@@H](C(=O)NCC(N)=O)NC(=O)[C@H](CO)NC(=O)[C@H](C(C)C)NC1=O [Example 1245] ({CH2CO}-FYDWV[Bip][Cit][NMeA][NMeF]RLVSCG-NH2; thioether N-14)
4,7.15,CC(C)C[C@@H]1NC(=O)[C@H](Cc2c[nH]c3ccccc23)NC(=O)[C@H](CC(=O)O)NC(=O)[C@H](Cc2ccc(O)cc2)NC(=O)[C@H](Cc2ccccc2)NC(=O)CSC[C@@H](C(=O)N[C@@H](C)C(N)=O)NC(=O)[C@H](CO)NC(=O)[C@H](C(C)C)NC(=O)[C@H](CC(C)C)NC(=O)[C@H](CCC(N)=O)NC(=O)[C@H]2CCCN2C(=O)[C@H](C)N(C)C(=O)[C@H](C(C)C)NC(=O)[C@H](Cc2ccc(-c3ccccc3)cc2)NC1=O [Example 1037] ({CH2CO}-FYDWL[Bip]V[NMeA][dP]QLVSCA-NH2; thioether N-14)
5,7.22,CC(C)C[C@@H]1NC(=O)[C@H](CCN)NC(=O)[C@H](Cc2ccccc2)N(C)C(=O)[C@H](C)N(C)C(=O)[C@H](CCCNC(=N)N)NC(=O)[C@H](Cc2ccc(-c3ccccc3)cc2)NC(=O)[C@H](C(C)C)NC(=O)[C@H](Cc2c[nH]c3ccccc23)NC(=O)[C@H](CC(=O)O)NC(=O)[C@H](Cc2ccc(O)cc2)NC(=O)[C@H](Cc2ccccc2)NC(=O)CSC[C@@H](C(=O)N[C@@H](C)C(N)=O)NC(=O)[C@H](CO)NC(=O)[C@H](C(C)C)NC1=O [Example 1304] ({CH2CO}-FYDWV[Bip]R[NMeA][NMeF][Dab]LVSCA-NH2; thioether N-14)
6,7.70,Cc1cccc(C[C@@H]2NC(=O)[C@H](CC(=O)O)NC(=O)[C@H](Cc3ccc(OCC(=O)O)cc3)NC(=O)[C@H](Cc3ccncc3)NC(=O)CSC[C@@H](C(=O)N[C@@H](CCN)C(N)=O)NC(=O)[C@H](CO)NC(=O)[C@H](C(C)(C)O)NC(=O)[C@H](CC3CCCCC3)NC(=O)[C@H](CCN)NC(=O)[C@H]3CCCN3C(=O)[C@H](C)N(C)C(=O)[C@H](C(C)C)NC(=O)[C@H](Cc3ccc(-c4ccccc4)cc3)NC(=O)[C@H](Cc3ccc(OCC(=O)O)cc3)NC2=O)c1 [Example 1184] ({CH2CO}-[4Pal]Y(Carboxymethyl)D[Phe(3-Me)]Y(Carboxymethyl)[Bip]V[NMeA][dP][Dab][Cha][Val(3-OH)]SC[Dab]-NH2; thioether N-14)
7,6.15,CC(C)C[C@@H]1NC(=O)[C@H](CCCNC(=N)N)NC(=O)[C@H](Cc2ccccc2)N(C)C(=O)[C@H](C)N(C)C(=O)[C@H](CCCNC(=N)N)NC(=O)[C@H](Cc2ccc(-c3ccccc3)cc2)NC(=O)[C@H]([C@@H](C)O)NC(=O)[C@H](Cc2c[nH]c3ccccc23)NC(=O)[C@H](CC(=O)O)NC(=O)[C@H](Cc2ccc(O)cc2)NC(=O)[C@H](Cc2ccccc2)NC(=O)CSC[C@@H](C(=O)NCC(N)=O)NC(=O)[C@H](CO)NC(=O)[C@H](C(C)C)NC1=O [Example 1283] ({CH2CO}-FYDWT[Bip]R[NMeA][NMeF]RLVSCG-NH2; thioether N-14)
8,6.57,CC(C)C[C@@H]1NC(=O)[C@H](CCCNC(=N)N)NC(=O)[C@H](Cc2ccccc2)N(C)C(=O)[C@H](C)N(C)C(=O)[C@H](CCCNC(=N)N)NC(=O)[C@H](Cc2ccc(-c3ccccc3)cc2)NC(=O)[C@H](C(C)C)NC(=O)[C@H](Cc2c[nH]c3ccccc23)NC(=O)[C@H](CC(=O)O)NC(=O)[C@H](Cc2ccc(O)cc2)NC(=O)[C@H](Cc2cnc[nH]2)NC(=O)CSC[C@@H](C(=O)N[C@@H](C)C(N)=O)NC(=O)[C@H]([C@@H](C)O)NC(=O)[C@H](C(C)C)NC1=O [Example 1324] ({CH2CO}-HYDWV[Bip]R[NMeA][NMeF]RLVTCA-NH2; thioether N-14)
9,6.55,CC(C)C[C@@H]1NC(=O)[C@H](Cc2c[nH]c3ccccc23)NC(=O)[C@H](CC(=O)O)NC(=O)[C@H](Cc2ccc(O)cc2)NC(=O)[C@H](Cc2ccccc2)NC(=O)CSC[C@@H](C(=O)NCC(N)=O)NC(=O)[C@H]([C@@H](C)O)NC(=O)[C@H](C(C)C)NC(=O)[C@H](CC(C)C)NC(=O)[C@H](CCN)NC(=O)[C@H]2CCCN2C(=O)[C@H](CN)NC(=O)[C@H](C(C)C)NC(=O)[C@H](Cc2ccc(-c3ccccc3)cc2)NC1=O [Example 1407] ({CH2CO}-FYDWL[Bip]V[Dap][dP][Dab]LVTCG-NH2; thioether N-14)
10,6.72,CC(C)C[C@@H]1NC(=O)[C@H](CCCNC(=N)N)NC(=O)[C@H](Cc2ccccc2)N(C)C(=O)[C@H]2CCCN2C(=O)[C@H](CCCNC(=N)N)NC(=O)[C@H](Cc2ccc(-c3ccccc3)cc2)NC(=O)[C@H](C(C)C)NC(=O)[C@H](Cc2c[nH]c3ccccc23)NC(=O)[C@H](CC(=O)O)NC(=O)[C@H](Cc2ccc(O)cc2)NC(=O)[C@H](CC(N)=O)NC(=O)CSC[C@@H](C(=O)N[C@@H](C)C(N)=O)NC(=O)[C@H]([C@@H](C)O)NC(=O)[C@H](C(C)C)NC1=O [Example 1362] ({CH2CO}-NYDWV[Bip]R[dP][NMeF]RLVTCA-NH2; thioether N-14)
11,6.66,CC(C)C[C@@H]1NC(=O)[C@H](CCCNC(=N)N)NC(=O)[C@H](Cc2ccccc2)N(C)C(=O)[C@H](C)N(C)C(=O)[C@H](CCC(=O)O)NC(=O)[C@H](Cc2ccc(-c3ccccc3)cc2)NC(=O)[C@H](C(C)C)NC(=O)[C@H](Cc2c[nH]c3ccccc23)NC(=O)[C@H](CC(=O)O)NC(=O)[C@H](Cc2ccc(O)cc2)NC(=O)[C@H](Cc2ccccc2)NC(=O)CSC[C@@H](C(=O)N[C@@H](C)C(N)=O)NC(=O)[C@H]([C@@H](C)O)NC(=O)[C@H](C(C)C)NC1=O [Example 1344] ({CH2CO}-FYDWV[Bip]E[NMeA][NMeF]RLVTCA-NH2; thioether N-14)
12,7.30,Cc1cccc(C[C@@H]2NC(=O)[C@H](CC(=O)O)NC(=O)[C@H](Cc3ccc(C(=O)O)cc3)NC(=O)[C@H](Cc3ccncc3)NC(=O)CSC[C@@H](C(=O)N[C@@H](C)C(N)=O)NC(=O)[C@H]([C@@H](C)O)NC(=O)[C@H](C(C)C)NC(=O)[C@H](CC3CCCCC3)NC(=O)[C@H](CCN)NC(=O)[C@H](Cc3ccccc3)N(C)C(=O)[C@H](CCCN)NC(=O)[C@H](CCC(=O)O)NC(=O)[C@H](Cc3ccc(-c4ccccc4)cc3)NC(=O)C(C(C)C)NC2=O)c1 (stereo partly drawn) [Example 1444] ({CH2CO}-[4Pal][Phe(4-COOH)]D[Phe(3-Me)][ξV][Bip]E[Orn][NMeF][Dab][Cha]VTCA-NH2; thioether N-14)
13,6.89,CC(C)C[C@@H]1NC(=O)[C@H](CCCNC(=N)N)NC(=O)[C@H](Cc2ccccc2)N(C)C(=O)[C@H](C)N(C)C(=O)[C@H](CCC(=O)O)NC(=O)[C@H](Cc2ccc(-c3ccccc3)cc2)NC(=O)[C@H](C(C)C)NC(=O)[C@H](Cc2c[nH]c3ccccc23)NC(=O)[C@H](CC(=O)O)NC(=O)[C@H](Cc2ccc(O)cc2)NC(=O)[C@H](CC(N)=O)NC(=O)CSC[C@@H](C(=O)N[C@@H](C)C(N)=O)NC(=O)[C@H](CO)NC(=O)[C@H](C(C)C)NC1=O [Example 1382] ({CH2CO}-NYDWV[Bip]E[NMeA][NMeF]RLVSCA-NH2; thioether N-14)
14,6.27,CC[C@H](C)[C@@H]1NC(=O)[C@H](Cc2ccc(-c3ccccc3)cc2)NC(=O)[C@H](CC(C)C)NC(=O)[C@H](Cc2c[nH]c3ccccc23)NC(=O)[C@H](CC(=O)O)NC(=O)[C@H](Cc2ccc(O)cc2)NC(=O)[C@H](Cc2ccccc2)NC(=O)CSC[C@@H](C(=O)NCC(N)=O)NC(=O)[C@H](CO)NC(=O)[C@H](C(C)C)NC(=O)[C@H](CC(C)C)NC(=O)[C@H](CC(N)=O)NC(=O)CN(C)C(=O)[C@H](C)N(C)C1=O [Example 1133] ({CH2CO}-FYDWL[Bip]I[NMeA][Sar]NLVSCG-NH2; thioether N-14)
15,7.05,CC(C)C[C@@H]1NC(=O)[C@H](CCCN)NC(=O)[C@H](Cc2ccccc2)N(C)C(=O)[C@H](C)N(C)C(=O)[C@H](CCCNC(=N)N)NC(=O)[C@H](Cc2ccc(-c3ccccc3)cc2)NC(=O)[C@H](C(C)C)NC(=O)[C@H](Cc2c[nH]c3ccccc23)NC(=O)[C@H](CC(=O)O)NC(=O)[C@H](Cc2ccc(O)cc2)NC(=O)[C@H](CC(N)=O)NC(=O)CSC[C@@H](C(=O)N[C@@H](CO)C(N)=O)NC(=O)[C@H]([C@@H](C)O)NC(=O)[C@H](C(C)C)NC1=O [Example 1353] ({CH2CO}-NYDWV[Bip]R[NMeA][NMeF][Orn]LVTCS-NH2; thioether N-14)
